Reference: ChEMBL document CHEMBL1201862, “PubChem BioAssay data set” (2004)
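96-well plates; 48 h exposure; 5 concentrations. Endpoints by linear interpolation between flanking doses. Not reached: highest tested concentration assigned. GI50: concentration for 50% inhibition of growth.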 The source made the active and inactive calls. Cut-off read from the data, not from the text of the source: active = GI50 up to about 1.1 µM and inactive = higher.

Legend:
Assay in all cases: DTP human tumour cell line panel, 48 h
[1] = test system: A549
[2] = test system: BT-549
[3] = test system: CAKI-1
[4] = test system: CCRF-CEM
[5] = test system: DU-145
[6] = test system: HCT-116
[7] = test system: LOX IMVI
[8] = test system: M14
[9] = test system: MCF7
[10] = test system: MDA-N
[11] = test system: NCI-H226
[12] = test system: NCI/ADR-RES
[13] = test system: OVCAR-3
[14] = test system: SF-295
[15] = test system: SF-539
[16] = test system: SK-MEL-28
[17] = test system: SK-OV-3
[18] = test system: SNB-75
[19] = test system: T47D
[20] = test system: TK-10

## Cc1ccc2nc3c(=O)[nH]c(=O)nc-3n(C)c2c1C
[1]
  GI50: > 100 µM (inactive)
[2]
  GI50: > 100 µM (inactive)
[3]
  GI50: > 100 µM (inactive)
[4]
  GI50: > 100 µM (inactive)
[5]
  GI50: > 100 µM (inactive)
[6]
  GI50: > 100 µM (inactive)
[7]
  GI50: > 100 µM (inactive)
[8]
  GI50: > 100 µM (inactive)
[9]
  GI50: > 100 µM (inactive)
[10]
  GI50: > 100 µM (inactive)
[11]
  GI50: > 100 µM (inactive)
[12]
  GI50: > 100 µM (inactive)
[13]
  GI50: > 100 µM (inactive)
[14]
  GI50: > 100 µM (inactive)
[15]
  GI50: > 100 µM (inactive)
[16]
  GI50: > 100 µM (inactive)
[17]
  GI50: > 100 µM (inactive)
[18]
  GI50: > 100 µM (inactive)
[19]
  GI50: > 100 µM (inactive)
[20]
  GI50: > 100 µM (inactive)

## NC(=O)CN1CCN(c2nc(N3CCCC3)c3nc(Cl)c(NCc4ccccc4)nc3n2)CC1
[1]
  GI50: 12.9 µM (inactive)
[2]
  GI50: 10 µM (inactive)
[3]
  GI50: 17 µM (inactive)
[4]
  GI50: 13.8 µM (inactive)
[5]
  GI50: 11.5 µM (inactive)
[6]
  GI50: 8 µM (inactive)
[7]
  GI50: 9.33 µM (inactive)
[8]
  GI50: 9.91 µM (inactive)
[9]
  GI50: 8.87 µM (inactive)
[10]
  GI50: 8.67 µM (inactive)
[11]
  GI50: 11.8 µM (inactive)
[12]
  GI50: 14 µM (inactive)
[13]
  GI50: 8.39 µM (inactive)
[14]
  GI50: 8.89 µM (inactive)
[15]
  GI50: 9.06 µM (inactive)
[16]
  GI50: 9.46 µM (inactive)
[17]
  GI50: 9.91 µM (inactive)
[18]
  GI50: 10.7 µM (inactive)
[19]
  GI50: 7.89 µM (inactive)
[20]
  GI50: 14.2 µM (inactive)

## CCN(CC)c1ccc(/C=C2/C[N+](C)(C)C/C(=C/c3ccc(N(CC)CC)cc3)C2=O)cc1
[1]
  GI50: 4.92 µM (inactive)
[2]
  GI50: 1.61 µM (inactive)
[3]
  GI50: > 48 µM (inactive)
[4]
  GI50: 1.03 µM (active)
[5]
  GI50: 6.05 µM (inactive)
[6]
  GI50: 2.3 µM (inactive)
[7]
  GI50: 1.69 µM (inactive)
[8]
  GI50: 2.4 µM (inactive)
[9]
  GI50: 1.96 µM (inactive)
[10]
  GI50: 1.66 µM (inactive)
[11]
  GI50: 6.21 µM (inactive)
[12]
  GI50: > 100 µM (inactive)
[13]
  GI50: 2.12 µM (inactive)
[14]
  GI50: 11.9 µM (inactive)
[15]
  GI50: 2.32 µM (inactive)
[16]
  GI50: 1.82 µM (inactive)
[17]
  GI50: 9.29 µM (inactive)
[18]
  GI50: 1.62 µM (inactive)
[19]
  GI50: 2.4 µM (inactive)
[20]
  GI50: 9.84 µM (inactive)

## CN(C)CCO/N=C1/C=C2CC[C@H]3[C@@H]4CC[C@H](O)[C@@]4(C)CC[C@@H]3[C@@]2(C)CC1
[1]
  GI50: 18.3 µM (inactive)
[2]
  GI50: 2.61 µM (inactive)
[3]
  GI50: 31.9 µM (inactive)
[4]
  GI50: 6.89 µM (inactive)
[5]
  GI50: 16.7 µM (inactive)
[6]
  GI50: 10.5 µM (inactive)
[7]
  GI50: 15.9 µM (inactive)
[8]
  GI50: 8.26 µM (inactive)
[9]
  GI50: 22.8 µM (inactive)
[10]
  GI50: 3.72 µM (inactive)
[11]
  GI50: 1.23 µM (inactive)
[12]
  GI50: 3.18 µM (inactive)
[13]
  GI50: 16.6 µM (inactive)
[14]
  GI50: 13.9 µM (inactive)
[15]
  GI50: 3.51 µM (inactive)
[16]
  GI50: 13.8 µM (inactive)
[17]
  GI50: 8.67 µM (inactive)
[18]
  GI50: 3.48 µM (inactive)
[19]
  GI50: 23.9 µM (inactive)
[20]
  GI50: 11.1 µM (inactive)

## Oc1cc2c3c(c1)CCCN3CCC2
[1]
  GI50: > 10 µM (inactive)
[2]
  GI50: > 10 µM (inactive)
[3]
  GI50: > 10 µM (inactive)
[4]
  GI50: > 10 µM (inactive)
[5]
  GI50: > 10 µM (inactive)
[6]
  GI50: > 10 µM (inactive)
[7]
  GI50: > 10 µM (inactive)
[8]
  GI50: > 10 µM (inactive)
[9]
  GI50: > 10 µM (inactive)
[10]
  GI50: > 10 µM (inactive)
[11]
  GI50: > 10 µM (inactive)
[12]
  GI50: > 10 µM (inactive)
[13]
  GI50: > 10 µM (inactive)
[14]
  GI50: > 10 µM (inactive)
[15]
  GI50: > 10 µM (inactive)
[16]
  GI50: > 10 µM (inactive)
[17]
  GI50: > 10 µM (inactive)
[18]
  GI50: > 10 µM (inactive)
[19]
  GI50: > 10 µM (inactive)
[20]
  GI50: > 10 µM (inactive)

## CN(C)CCCNc1c2ccccc2[n+]([O-])c2ccccc12
[1]
  GI50: 44.6 µM (inactive)
[2]
  GI50: 19.1 µM (inactive)
[3]
  GI50: 49.4 µM (inactive)
[4]
  GI50: 62.1 µM (inactive)
[5]
  GI50: > 100 µM (inactive)
[6]
  GI50: 34 µM (inactive)
[7]
  GI50: 31.2 µM (inactive)
[8]
  GI50: > 100 µM (inactive)
[9]
  GI50: 31.6 µM (inactive)
[10]
  GI50: 68.7 µM (inactive)
[11]
  GI50: 22 µM (inactive)
[12]
  GI50: > 100 µM (inactive)
[13]
  GI50: 66.8 µM (inactive)
[14]
  GI50: 54 µM (inactive)
[15]
  GI50: 45.9 µM (inactive)
[16]
  GI50: > 100 µM (inactive)
[17]
  GI50: 82.6 µM (inactive)
[18]
  GI50: 51.4 µM (inactive)
[19]
  GI50: 78 µM (inactive)
[20]
  GI50: 31.9 µM (inactive)

## C/C=C(\C)C(=O)OC1C(C)=C2C(C1OC(=O)CCCC)C(C)(OC(C)=O)CC(OC(=O)CCCC)C1(O)C2OC(=O)C1(C)O (stereo not given)
[1]
  GI50: 1.03 µM (active)
[2]
  GI50: 8.71 µM (inactive)
[3]
  GI50: 5.13 µM (inactive)
[4]
  GI50: 1.74 µM (inactive)
[5]
  GI50: 3.71 µM (inactive)
[6]
  GI50: 0.525 µM (active)
[7]
  GI50: 0.439 µM (active)
[8]
  GI50: 0.452 µM (active)
[9]
  GI50: 0.394 µM (active)
[10]
  GI50: 0.437 µM (active)
[11]
  GI50: 1.19 µM (inactive)
[12]
  GI50: 36.9 µM (inactive)
[13]
  GI50: 0.925 µM (active)
[14]
  GI50: 0.802 µM (active)
[15]
  GI50: 0.944 µM (active)
[16]
  GI50: 0.893 µM (active)
[17]
  GI50: 4.11 µM (inactive)
[18]
  GI50: 0.828 µM (active)
[19]
  GI50: 6.7 µM (inactive)
[20]
  GI50: 13 µM (inactive)

## O=c1[nH]nc(-c2ccc([N+](=O)[O-])cc2)n1/N=C/c1ccc([N+](=O)[O-])cc1
[1]
  GI50: 90.8 µM (inactive)
[2]
  GI50: > 100 µM (inactive)
[3]
  GI50: > 100 µM (inactive)
[4]
  GI50: 45 µM (inactive)
[5]
  GI50: > 100 µM (inactive)
[6]
  GI50: > 100 µM (inactive)
[7]
  GI50: 0.483 µM (active)
[8]
  GI50: > 100 µM (inactive)
[9]
  GI50: 47.9 µM (inactive)
[10]
  GI50: > 100 µM (inactive)
[11]
  GI50: > 100 µM (inactive)
[12]
  GI50: 64.7 µM (inactive)
[13]
  GI50: > 100 µM (inactive)
[14]
  GI50: > 100 µM (inactive)
[15]
  GI50: > 100 µM (inactive)
[16]
  GI50: > 100 µM (inactive)
[17]
  GI50: > 100 µM (inactive)
[18]
  GI50: > 100 µM (inactive)
[19]
  GI50: > 100 µM (inactive)
[20]
  GI50: > 100 µM (inactive)

## Cc1ccc(-c2cc(-c3ccc(Cl)cc3)nc(/N=C3\C(=O)N(CN4CCOCC4)c4ccc(Cl)cc43)n2)cc1
[1]
  GI50: 27.2 µM (inactive)
[2]
  GI50: 21.8 µM (inactive)
[3]
  GI50: 23 µM (inactive)
[4]
  GI50: 20.4 µM (inactive)
[5]
  GI50: 20.5 µM (inactive)
[6]
  GI50: 17.4 µM (inactive)
[7]
  GI50: 31.8 µM (inactive)
[8]
  GI50: 26.4 µM (inactive)
[9]
  GI50: 17.5 µM (inactive)
[10]
  GI50: 32.6 µM (inactive)
[11]
  GI50: 54.1 µM (inactive)
[12]
  GI50: 22.6 µM (inactive)
[13]
  GI50: 33.3 µM (inactive)
[14]
  GI50: 35.7 µM (inactive)
[15]
  GI50: 23 µM (inactive)
[16]
  GI50: 42.4 µM (inactive)
[17]
  GI50: 35.6 µM (inactive)
[18]
  GI50: 29.9 µM (inactive)
[19]
  GI50: 17.3 µM (inactive)
[20]
  GI50: 26.4 µM (inactive)

## CN(C)CCNc1ccc2nnn3c4ccccc4c(=O)c1c23
[1]
  GI50: 2.26 µM (inactive)
[2]
  GI50: 13.2 µM (inactive)
[3]
  GI50: 2.5 µM (inactive)
[4]
  GI50: 2.27 µM (inactive)
[5]
  GI50: 3.91 µM (inactive)
[6]
  GI50: 1.56 µM (inactive)
[7]
  GI50: 1.62 µM (inactive)
[8]
  GI50: 3.07 µM (inactive)
[9]
  GI50: 4.32 µM (inactive)
[10]
  GI50: 2.81 µM (inactive)
[11]
  GI50: 1.74 µM (inactive)
[12]
  GI50: 2.4 µM (inactive)
[13]
  GI50: 3.36 µM (inactive)
[14]
  GI50: 3.57 µM (inactive)
[15]
  GI50: 4.75 µM (inactive)
[16]
  GI50: 4.99 µM (inactive)
[17]
  GI50: 7.87 µM (inactive)
[18]
  GI50: 2.55 µM (inactive)
[19]
  GI50: 6 µM (inactive)
[20]
  GI50: 3.31 µM (inactive)
